Reference: US9457007B2, “Prenylflavanone compounds for modulating diabetes” (NATUREWISE BIOTECH & MEDICALS CORPORATION, priority 2013, dated 2016)

Columns and labels:
Format in all cases: in vivo
[1] = test system: STZ-induced diabetic mice; experiment: Blood glucose in the STZ-induced diabetic mice; conditions: propolins study; after administration for 8 weeks by gavage daily; PPC 9.0, PPD 6.75, PPF 4.5, PPG 4.5, Januvia 370 mg/kg/mouse
Experimental: The male FBV mice of 5 weeks old, commercially available from BioLASCO Co., Ilan, Taiwan, were acclimatized for 1 week, prior to administration of streptozotocin (STZ) at 40 mg/kg for 3 consecutive days. STZ was formulated with an aqueous solution of sodium citrate (pH 4.5, 73.5 mg/5 mL) on ice, and then 100 μL of the formulation was dosed by intraperitoneal injection. From day 2 in the 3 consecutive days, the mice were dosed with 5% (w/v) glucose water for 6 consecutive days. After allowing the mice to rest for 10 days, blood glucose levels were measured. After administration of STZ for 1 week, about 5 μL of blood was collected from each of the mice at the tail vein, and was assayed for blood glucose by a blood glucose monitor and chip (FORA, California, U.S.A.). After 1 week, blood glucose was detected once more, and whether blood glucose was smooth or not was evaluated prior to grouping. The values of blood glucose in all of the mice induced to suffer from diabetes were brought to fall within about 300±50 mg/dL. […]
(§1) An appropriate amount of propolins and its relevant derivatives, such as PPA, PPB, PPC, PPD, PPE, PPF, PPG, PPH, PPI or PPJ, was dissolved with 3 ml 95% alcohol and then uniformly mixed with 80 μL Tween 80; after concentrating under reduced pressure for removal of alcohol, it was uniformly dispersed into 16 ml water to give a liquid mixture of propolins. This mixture was fed by 200 μL gavage into the diabetic mice designated as the propolins and its relevant derivative group.
(§2) Sitagliptin (trade name: Januvia), commercially available from American Merck Co., was used as the DPP4 inhibitor. An appropriate amount of sitagliptin was dissolved in water to provide a final concentration allowing administration of the mice at a dose of 370 mg/kg. In the following example, Januvia was representative of the DPP4 inhibitors and acted as a positive control group for reference.
(§3) Tween 80 (80 μL) was mixed into 16 ml water to give a placebo, which was fed by 200 μL gavage into the STZ-induced diabetic mice or normal mice (i.e., the mice without induction for diabetes). Oral gavage was carried out once at a fixed time each day, and weight, feedstuff intake and water intake were measured weekly until tests were finished at 12-13 weeks.

[2] = test system: STZ-induced diabetic mice; experiment: Feedstuff intake of the diabetic mice; conditions: for feedstuff intake: propolins study
Experimental: (§4) The male FBV mice of 5 weeks old, commercially available from BioLASCO Co., Ilan, Taiwan, were acclimatized for 1 week, prior to administration of streptozotocin (STZ) at 40 mg/kg for 3 consecutive days. STZ was formulated with an aqueous solution of sodium citrate (pH 4.5, 73.5 mg/5 mL) on ice, and then 100 μL of the formulation was dosed by intraperitoneal injection. From day 2 in the 3 consecutive days, the mice were dosed with 5% (w/v) glucose water for 6 consecutive days. After allowing the mice to rest for 10 days, blood glucose levels were measured. After administration of STZ for 1 week, about 5 μL of blood was collected from each of the mice at the tail vein, and was assayed for blood glucose by a blood glucose monitor and chip (FORA, California, U.S.A.). After 1 week, blood glucose was detected once more, and whether blood glucose was smooth or not was evaluated prior to grouping. The values of blood glucose in all of the mice induced to suffer from diabetes were brought to fall within about 300±50 mg/dL.
(§5) An appropriate amount of the Taiwan Green Propolis alcohol extract was dissolved with 3 ml 95% alcohol and then uniformly mixed with 80 μL Tween 80 as a cosolvent; after concentrating under reduced pressure for removal of alcohol, it was dispersed into 16 ml water to give a liquid mixture of the Taiwan Green Propolis extract. This mixture was fed by 200 μL gavage into the diabetic mice designated as the Taiwan Green Propolis extract group.
as §1, §2, §3

[3] = test system: STZ-induced diabetic mice; experiment: Water intake of the diabetic mice
Experimental: as §4, §5, §1, §2, §3

[4] = test system: STZ-induced diabetic mice; experiment: Oral glucose tolerance test (OGTT); parameters: reduction of AUC compared with the STZ group / extent of reduction of AUC compared with the STZ group: concentration or dose not given beside the values
Experimental: as §4
After administration of the testing substance to the animals for 12 weeks, the OGTT test was performed for evaluation of secretion and effects of insulin. All of the mice in the test were administered with the testing substance and then fasted for 4 hours prior to blood sampling at the first point called point 0. Afterwards, the mice were fed by oral gavage with 200 μL glucose in water, equivalent to a dose of 1.0 g/kg. After administration, blood was collected for an assay of blood glucose at 15, 30, 60, 120 and 180 minutes, respectively. Therefore, a total of 6 points, including points at 0, 15, 30, 60, 120 and 180 minutes, were obtained. About 5 μL of blood was collected from each of the mice at the tail vein and was then assayed for blood glucose by the blood glucose monitor and chip (FORA, California, U.S.A.). The blood glucose values at the Y-axis were plotted against the time points at the X-axis. Each group was calculated for an area under curve for comparison. The efficacy in regulation of blood glucose was evaluated by the area showing a relationship between the testing substance and secretion and effects of insulin.

[5] = test system: STZ-induced diabetic mice; experiment: Analysis of glycosylated hemoglobin HbA1c; conditions: TPE study, TPE 36 mg/kg, DPP4I 370 mg/kg
Experimental: STZ was formulated with an aqueous solution of sodium citrate (pH 4.5, 73.5 mg/5 mL) on ice, and then 100 μL of the formulation was dosed by intraperitoneal injection. […] The glycosylated hemoglobin was used for evaluation of the efficacy of the testing substance in the regulation of blood glucose. […] (New Taipei City, Taiwan) for analysis. The analysis may confer an average and standard deviation to each group of the mice. In the event the presence of the blood glucose modulation efficacy for the testing substance, this value would be lower; and in the event the absence of the blood glucose modulation efficacy for the testing substance, this value would be higher.

Question: Which blood glucose [1] does the source give for `N[C@@H](CC(=O)N1CCn2c(nnc2C(F)(F)F)C1)Cc1cc(F)c(F)cc1F` [DPP4I, Sitagliptin, reference compound] here?
Answer: 330 mg/dL

Question: And the “effect on food intake” value ([2]; TPE study, 13 weeks, TPE 36 mg/kg/day, Januvia 370 mg/kg)?
Answer: the test results were the same

Question: What about the feedstuff intake ([2]; at 1 week) of the same compound?
Answer: 5.5 g/mouse

Question: And the feedstuff intake ([2]; at 6 weeks)?
Answer: 6.5 g/mouse

Question: What about the feedstuff intake ([2]; at 8 weeks) of the same compound?
Answer: 6.4 g/mouse

Question: And the water intake ([3]; TPE study, after 8 weeks, TPE 36 mg/kg/day, Januvia 370 mg/kg)?
Answer: 5.4 mL/day/mouse

Question: What about the water intake ([3]; TPE study, after 13 weeks, TPE 36 mg/kg/day, Januvia 370 mg/kg) of the same compound?
Answer: 3.8 mL/day/mouse

Question: And the water intake ([3]; TPE study, first week, TPE 36 mg/kg/day, Januvia 370 mg/kg)?
Answer: 7.0 mL/day/mouse

Question: And the water intake ([3]; propolins study, at 1 week)?
Answer: 8.0 mL/mouse

Question: What about the water intake ([3]; propolins study, at 6 weeks) of the same compound?
Answer: 12.0 mL/mouse

Question: And the water intake ([3]; propolins study, at 8 weeks)?
Answer: 12.5 mL/mouse

Question: And the “blood glucose value in glucose tolerance test” value (from here on “blood glucose value”) ([4]; TPE study, 0 point, glucose 1.0 g/kg oral, TPE 36 mg/kg, Januvia 370 mg/kg)?
Answer: about 260 mg/dL

Question: And the “blood glucose value” value ([4]; TPE study, 30-minute time point after glucose in water)?
Answer: about 420 mg/dL

Question: And the “blood glucose value” value ([4]; TPE study, 180-minute time point)?
Answer: 240 mg/dL

Question: And the “reduction of AUC compared with the STZ group” value ([4]; TPE study, OGTT)?
Answer: 66.1%

Question: And the “AUC value of blood glucose (integral area)” value ([4]; TPE study, OGTT 0-180 min, TPE 36 mg/kg, DPP4I 370 mg/kg)?
Answer: about 5.8×10^4

Question: And the “value of blood glucose in glucose tolerance test” value ([4]; propolins study, 0 point, PPC 9.0, PPD 6.75, PPF 4.5, PPG 4.5, DPP4I 370 mg/kg/mouse)?
Answer: about 380 mg/dL

Question: And the “value of blood glucose in glucose tolerance test” value ([4]; propolins study, 30-minute time point after glucose in water)?
Answer: about 450 mg/dL

Question: What about the “value of blood glucose in glucose tolerance test” value ([4]; propolins study, 120-minute time point) of the same compound?
Answer: about 450 mg/dL

Question: And the “value of blood glucose in glucose tolerance test” value ([4]; propolins study, 180-minute time point)?
Answer: 400 mg/dL

Question: What about the “AUC value for blood glucose (integral area)” value ([4]; propolins study, OGTT) of the same compound?
Answer: about 7.2×10^4

Question: What about the “extent of reduction of AUC compared with the STZ group” value ([4]; propolins study, OGTT) of the same compound?
Answer: 42.0%

Question: And the “reduction of the generation of glycosylated hemoglobin” value ([5]; 13 weeks)?
Answer: 55%

Question: What about the “value of glycosylated hemoglobin” value ([5]; administration for 13 weeks) of the same compound?
Answer: about 4.6%
